Test results reported in patent publication US9856279B2 (AGIOS PHARMACEUTICALS, INC, priority 2011, dated 2018).

Experiments:
HT1080 cells = assay: Cellular assay for IDH1m inhibitors: inhibition of 2-HG production (LC-MS, 48 hours) in HT1080 cells; assay type: cell-based; details: Homo sapiens, HT-1080; inhibition of 2-HG production, HT1080 cells; read-out: HT1080 IC50
In short: (§1)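 HT1080 or U87MG cells were seeded at 5000/well in DMEM with 10% FBS, incubated overnight, then treated with compounds (0.2% DMSO final) for 48 h. Medium 2-HG was quantified by LC-MS, and IC50 was taken as the concentration reducing 2-HG by 50% versus DMSO control.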

U87MG cells = assay: Cellular assay for IDH1m inhibitors: inhibition of 2-HG production (LC-MS, 48 hours) in U87MG cells; assay type: cell-based; details: Homo sapiens, U-87 MG, inhibition of 2-HG production, U87R132H cells; read-out: U87R132H IC50
In short: as §1

IDH1 R132H = IDH1 R132H (Homo sapiens, UniProt O75874, R132H); assay: Assay for IDH1 R132H inhibitors (NADPH/aKG, resazurin detection); assay type: biochemical; details: enzyme assay of Example 12; read-out: IDH1R132H IC50
In short: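 Compound added to substrate mix (8 uM NADPH, 2 mM aKG), then enzyme mix (0.2 μg/ml IDH1 R132H); 50 min RT in 20 mM Tris pH 7.5, 150 mM NaCl, 10 mM MgCl2, 0.03% BSA. Resazurin detection mix (30 μM) 5 min RT; resorufin fluorescence Ex544/Em590.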

IDH1 R132H, sequence (O75874 whole entry R132H): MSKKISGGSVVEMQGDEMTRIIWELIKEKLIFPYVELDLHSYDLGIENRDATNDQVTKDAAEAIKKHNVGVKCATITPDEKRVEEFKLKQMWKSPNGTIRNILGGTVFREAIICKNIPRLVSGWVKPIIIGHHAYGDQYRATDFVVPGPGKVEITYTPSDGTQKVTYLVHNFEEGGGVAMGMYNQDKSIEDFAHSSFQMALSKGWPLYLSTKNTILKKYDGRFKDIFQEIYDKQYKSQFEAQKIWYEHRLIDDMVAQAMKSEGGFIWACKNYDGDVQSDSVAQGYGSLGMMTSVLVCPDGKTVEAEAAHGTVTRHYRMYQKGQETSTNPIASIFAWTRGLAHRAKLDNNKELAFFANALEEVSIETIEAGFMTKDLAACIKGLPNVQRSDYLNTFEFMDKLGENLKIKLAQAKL

IC50 (HT1080 cells) [nM]	IC50 (U87MG cells) [nM]	IC50 (IDH1 R132H) [nM]	SMILES
1000 to 10000	1000 to 10000	500 to 1000	COCCC(=O)N1CCN(c2nc(C3CC3)c(-c3cccc(NC(=O)[C@@H](C)Cl)c3)cc2C#N)C[C@H]1C [Compound 462, (R)-2-chloro-N-(3-(5-cyano-2-cyclopropyl-6-((R)-4-(3-methoxypropanoyl)-3-methylpiperazin-1-yl)pyridin-3-yl)phenyl)propanamide]
< 500	< 500	< 500	C=Cc1cc(N(C)c2cc(C#N)c(N3CCN(C(=O)CCOC)[C@H](C)C3)nc2C2CC2)ccn1 [Compound 690, (R)-6-cyclopropyl-2-(4-(3-methoxypropanoyl)-3-methylpiperazin-1-yl)-5-(methyl(2-vinylpyridin-4-yl)amino)nicotinonitrile]
< 500	< 500	< 500	C=Cc1cc(Nc2cc(C#N)c(N3CCN(C(=O)C[C@@H]4CCO4)[C@H](C4CC4)C3)nc2C2CC2)ccn1 [Compound 774, 6-cyclopropyl-2-((R)-3-cyclopropyl-4-(2-((S)-oxetan-2-yl)acetyl)piperazin-1-yl)-5-((2-vinylpyridin-4-yl)amino)nicotinonitrile]
1000 to 10000	500 to 1000	< 500	COCCC(=O)N1CCN(c2nc(C3CC3)c(-c3ccc4scnc4c3)cc2C#N)C[C@H]1C [Compound 352, (R)-5-benzothiazol-5-yl-6-cyclopropyl-2-[4-(3-methoxy-propionyl)-3-methyl-piperazin-1-yl]-nicotinonitrile]
< 500	< 500	< 500	C=Cc1cc(-c2c(C3CC3)nc(N3CCN(C(=O)CN4CCC4=O)[C@H](C4CC4)C3)c(C#N)c2C)ccn1 [Compound 811]
< 500	< 500	< 500	C=CC(=O)N1CCC=C(c2c(C3CC3)nc(N3CCN(C(=O)C[C@H]4CCO4)[C@H](C4CC4)C3)c(C#N)c2C)C1 [Compound 789, 5-(1-acryloyl-1,2,5,6-tetrahydropyridin-3-yl)-6-cyclopropyl-2-((R)-3-cyclopropyl-4-(2-((R)-oxetan-2-yl)acetyl)piperazin-1-yl)-4-methylnicotinonitrile]
< 500	< 500	< 500	COCCC(=O)N1CCN(c2nc(C3CC3)c(-c3cn(C)c(=O)c4ccccc34)cc2C#N)C[C@H]1C [Compound 418, (R)-6-cyclopropyl-2-[4-(3-methoxy-propionyl)-3-methyl-piperazin-1-yl]-5-(2-methyl-1-oxo-1,2-dihydro-isoquinolin-4-yl)-nicotinonitrile]
< 500	< 500	< 500	C=Cc1ccc2ccc(-c3cc(C#N)c(N4CCN(C(=O)C5CC5)[C@H](C5CC5)C4)nc3C3CC3)cc2n1 [Compound 709, (R)-2-(4-(cyclopropanecarbonyl)-3-cyclopropylpiperazin-1-yl)-6-cyclopropyl-5-(2-vinylquinolin-7-yl) nicotinonitrile]
500 to 1000	500 to 1000	< 500	COCCC(=O)N1CCN(c2nc(C3CC3)c(OCc3cccc(C#N)c3)cc2C#N)C[C@H]1C [Compound 294, (R)-5-(3-cyanobenzyloxy)-6-cyclopropyl-2-(4-(3-methoxypropanoyl)-3-methylpiperazin-1-yl)nicotinonitrile]
1000 to 10000	1000 to 10000	< 500	COCCC(=O)N1CCN(c2nc(C3CC3)c(-c3cccc4[nH]ccc34)cc2C#N)C[C@H]1C [Compound 287, (R)-6-cyclopropyl-5-(1H-indol-4-yl)-2-(4-(3-methoxypropanoyl)-3-methylpiperazin-1-yl)nicotinonitrile]
< 500	< 500	< 500	C=CC(=O)N1CCC=C(c2c(C3CC3)nc(N3CCN(C(=O)CCOC)[C@H](C4CC4)C3)c(C#N)c2C)C1 [Compound 745, (R)-5-(1-acryloyl-1,2,5,6-tetrahydropyridin-3-yl)-6-cyclopropyl-2-(3-cyclopropyl-4-(3-methoxypropanoyl)piperazin-1-yl)-4-methylnicotinonitrile]
< 500	< 500	< 500	C=Cc1cc(Nc2cc(C#N)c(N3CCN(C(=O)CCO)[C@H](C)C3)nc2C2CC2)ncn1 [Compound 617, (R)-6-cyclopropyl-2-(4-(3-hydroxypropanoyl)-3-methylpiperazin-1-yl)-5-(6-vinylpyrimidin-4-ylamino)nicotinonitrile]
< 500	< 500	< 500	C=Cc1cc(-c2cc(C#N)c(N3CCN(C(=O)C4CC4)[C@H](C4CC4)C3)nc2C2CC2)cnn1 [Compound 613, (R)-2-(4-(cyclopropanecarbonyl)-3-cyclopropylpiperazin-1-yl)-6-cyclopropyl-5-(6-vinylpyridazin-4-yl)nicotinonitrile]
< 500	< 500	< 500	C=Cc1cc(Nc2cc(C#N)c(N3CCN(C(=O)CCOC)[C@H](C4CC4)C3)nc2C2CC2)ccn1 [Compound 678, (R)-6-cyclopropyl-2-(3-cyclopropyl-4-(3-methoxypropanoyl)piperazin-1-yl)-5-((2-vinylpyridin-4-yl)amino)nicotinonitrile]
< 500	< 500	< 500	C=Cc1ccnc(Nc2cc(C#N)c(N3CCN(C(=O)CCO)[C@H](C4CC4)C3)nc2C2CC2)c1 [Compound 756, (R)-6-cyclopropyl-2-(3-cyclopropyl-4-(3-hydroxypropanoyl)piperazin-1-yl)-5-((4-vinylpyridin-2-yl)amino)nicotinonitrile]
500 to 1000	1000 to 10000	< 500	COCCC(=O)N1CCN(c2nc(C3CC3)c(OCc3cccc(C(=O)OC)c3)cc2C#N)C[C@H]1C [Compound 292, (R)-methyl 3-((5-cyano-2-cyclopropyl-6-(4-(3-methoxypropanoyl)-3-methylpiperazin-1-yl)pyridin-3-yloxy)methyl)benzoate]
1000 to 10000	1000 to 10000	500 to 1000	COCCC(=O)N1CCN(c2nc(C3CC3)c(-c3cccc(NC(=O)C4(C#N)CC4)c3)cc2C#N)C[C@H]1C [Compound 425, (R)-1-cyano-N-(3-(5-cyano-2-cyclopropyl-6-(4-(3-methoxypropanoyl)-3-methylpiperazin-1-yl)pyridin-3-yl)phenyl)cyclopropanecarboxamide]
< 500	< 500	< 500	C=Cc1cc(-c2cc(C#N)c(N3CCN(C(=O)C4CC4)[C@H](C4CC4)C3)nc2C2CC2)c2ccncc2n1 [Compound 689, (R)-2-(4-(cyclopropanecarbonyl)-3-cyclopropylpiperazin-1-yl)-6-cyclopropyl-5-(2-vinyl-1,7-naphthyridin-4-yl)nicotinonitrile]
< 500	< 500	< 500	C=Cc1cc(-c2c(C3CC3)nc(N3CCN(C(=O)CCc4ccco4)[C@H](C4CC4)C3)c(C#N)c2C)ccn1 [Compound 796, (R)-2-cyclopropyl-6-(3-cyclopropyl-4-(3-(furan-2-yl)propanoyl)piperazin-1-yl)-4-methyl-2′-vinyl-3,4′-bipyridine-5-carbonitrile]
